Source: PubChem BioAssay AID1259407 (Chemical Carcinogenesis Research Information System (CCRIS), 2018)
Activity calls are given as the source filed them. No rule for the calls is given here.

Test system: CCRIS mutagenicity, Ames/micronucleus/aberration tests
Test: CCRIS mutagenicity studies
[1] = Test System: AMES SALMONELLA TYPHIMURIUM, Strain/Indicator: TA98, Metabolic Activation: NONE, Method: PREINCUBATION
[2] = Test System: AMES SALMONELLA TYPHIMURIUM, Strain/Indicator: TA100, Metabolic Activation: NONE, Method: PREINCUBATION
[3] = Test System: AMES SALMONELLA TYPHIMURIUM, Strain/Indicator: TA1535, Metabolic Activation: NONE, Method: PREINCUBATION
[4] = Test System: AMES SALMONELLA TYPHIMURIUM, Strain/Indicator: TA1535, Metabolic Activation: RAT, LIVER, S-9, AROCLOR 1254 (10%), Method: PREINCUBATION
[5] = Test System: AMES SALMONELLA TYPHIMURIUM, Strain/Indicator: TA1537, Metabolic Activation: NONE, Method: PREINCUBATION

Compound: O=c1oc2c(O)c(O)cc3c(=O)oc4c(O)c(O)cc1c4c23
- mutagenic call [1]: inactive; negative
- mutagenic call (Test System: AMES SALMONELLA TYPHIMURIUM, Strain/Indicator: TA98, Metabolic Activation: RAT LIVER S-9, Method: PREINCUBATION): inactive; negative
- mutagenic call [2]: inactive; negative
- mutagenic call (Test System: AMES SALMONELLA TYPHIMURIUM, Strain/Indicator: TA100, Metabolic Activation: RAT LIVER S-9, Method: PREINCUBATION): inactive; negative
- mutagenic call (Test System: Ames Salmonella typhimurium, Strain/Indicator: TA102, Metabolic Activation: None, Method: Preincubation): inactive; negative
- mutagenic call (Test System: Ames Salmonella typhimurium, Strain/Indicator: TA102, Metabolic Activation: Rat, Liver, S-9, Aroclor 1254 in 0.154 M KCl, Method: Preincubation): inactive; negative
- mutagenic call (Test System: E. COLI, Strain/Indicator: WP2, Metabolic Activation: RAT, LIVER, S-9, AROCLOR 1254, Method: STANDARD PLATE): inactive; negative
- mutagenic call (Test System: MOUSE LYMPHOMA, Strain/Indicator: L5178Y (TK+/TK-), Metabolic Activation: NONE, Method: SUSPENSION/PLATE): inactive; negative. reevaluation of results: negative
- mutagenic call (Test System: MOUSE LYMPHOMA, Strain/Indicator: L5178Y (TK+/TK-), Metabolic Activation: RAT, LIVER, S-9, AROCLOR 1254, Method: SUSPENSION/PLATE): inactive; negative. reevaluation of results: inconclusive

Compound: COc1ccc2c3c([nH]c2c1)C(C)=NCC3
- mutagenic call (Test System: AMES SALMONELLA TYPHIMURIUM, Strain/Indicator: TA97, Metabolic Activation: NONE, Method: PREINCUBATION): inactive; negative
- mutagenic call (Test System: AMES SALMONELLA TYPHIMURIUM, Strain/Indicator: TA97, Metabolic Activation: RAT, LIVER, S-9, AROCLOR 1254, Method: PREINCUBATION): inactive; negative
- mutagenic call [1]: inactive; negative
- mutagenic call (Test System: AMES SALMONELLA TYPHIMURIUM, Strain/Indicator: TA98, Metabolic Activation: RAT, LIVER, S-9, AROCLOR 1254, Method: PREINCUBATION): inactive; negative
- mutagenic call [2]: inactive; negative
- mutagenic call (Test System: AMES SALMONELLA TYPHIMURIUM, Strain/Indicator: TA100, Metabolic Activation: RAT, LIVER, S-9, AROCLOR 1254, Method: PREINCUBATION): inactive; negative
- mutagenic call (Test System: AMES SALMONELLA TYPHIMURIUM, Strain/Indicator: TA102, Metabolic Activation: NONE, Method: PREINCUBATION): inactive; negative
- mutagenic call (Test System: AMES SALMONELLA TYPHIMURIUM, Strain/Indicator: TA102, Metabolic Activation: RAT, LIVER, S-9, AROCLOR 1254, Method: PREINCUBATION): inactive; negative

Compound: Cc1cc(C)n(-c2nnc(NN)c3c2[nH]c2ccccc23)n1
- mutagenic call [1]: inactive; negative
- mutagenic call (Test System: AMES SALMONELLA TYPHIMURIUM, Strain/Indicator: TA98, Metabolic Activation: RAT, LIVER, S-9, AROCLOR 1254 (4 OR 10%), Method: PREINCUBATION): inactive; negative
- mutagenic call [2]: inactive; negative
- mutagenic call (Test System: AMES SALMONELLA TYPHIMURIUM, Strain/Indicator: TA100, Metabolic Activation: RAT, LIVER, S-9, AROCLOR 1254 (4 OR 10%), Method: PREINCUBATION): inactive; negative
- mutagenic call [3]: inactive; negative
- mutagenic call [4]: inactive; negative
- mutagenic call [5]: inactive; negative
- mutagenic call (Test System: AMES SALMONELLA TYPHIMURIUM, Strain/Indicator: TA1537, Metabolic Activation: RAT, LIVER, S-9, AROCLOR 1254 (4 OR 10%), Method: PREINCUBATION): inactive; negative

Compound: CC(=O)/C(C)=N/O
- mutagenic call (Test System: AMES SALMONELLA TYPHIMURIUM, Strain/Indicator: TA98, Metabolic Activation: HAMSTER, LIVER, S-9, AROCLOR 1254 (10%), Method: PREINCUBATION): inactive; negative
- mutagenic call [1]: inactive; negative
- mutagenic call (Test System: AMES SALMONELLA TYPHIMURIUM, Strain/Indicator: TA98, Metabolic Activation: RAT, LIVER, S-9, AROCLOR 1254 (10%), Method: PREINCUBATION): inactive; negative
- mutagenic call (Test System: AMES SALMONELLA TYPHIMURIUM, Strain/Indicator: TA100, Metabolic Activation: HAMSTER, LIVER, S-9, AROCLOR 1254 (10%), Method: PREINCUBATION): inactive; negative
- mutagenic call [2]: inactive; negative
- mutagenic call (Test System: AMES SALMONELLA TYPHIMURIUM, Strain/Indicator: TA100, Metabolic Activation: RAT, LIVER, S-9, AROCLOR 1254 (10%), Method: PREINCUBATION): inactive; negative
- mutagenic call (Test System: AMES SALMONELLA TYPHIMURIUM, Strain/Indicator: TA1535, Metabolic Activation: HAMSTER, LIVER, S-9, AROCLOR 1254 (10%), Method: PREINCUBATION): inactive; negative
- mutagenic call [3]: inactive; negative
- mutagenic call [4]: inactive; negative
- mutagenic call (Test System: AMES SALMONELLA TYPHIMURIUM, Strain/Indicator: TA1537, Metabolic Activation: HAMSTER, LIVER, S-9, AROCLOR 1254 (10%), Method: PREINCUBATION): inactive; negative
- mutagenic call [5]: inactive; negative
- mutagenic call (Test System: AMES SALMONELLA TYPHIMURIUM, Strain/Indicator: TA1537, Metabolic Activation: RAT, LIVER, S-9, AROCLOR 1254 (10%), Method: PREINCUBATION): inactive; negative

Compound: CC(C)=CC1C(C(=O)OCN2C(=O)C3=C(CCCC3)C2=O)C1(C)C (stereo not given)
- mutagenic call (Test System: AMES SALMONELLA TYPHIMURIUM, Strain/Indicator: TA98): active; positive
- mutagenic call (Test System: AMES SALMONELLA TYPHIMURIUM, Strain/Indicator: TA98, Metabolic Activation: NONE): active; positive
- mutagenic call (Test System: AMES SALMONELLA TYPHIMURIUM, Strain/Indicator: TA98, Metabolic Activation: NONE, Method: MICROSUSPENSION): inactive; negative
- mutagenic call (Test System: AMES SALMONELLA TYPHIMURIUM, Strain/Indicator: TA98, Metabolic Activation: S-9, Method: MICROSUSPENSION): inactive; negative
- mutagenic call (Test System: AMES SALMONELLA TYPHIMURIUM, Strain/Indicator: TA100): active; positive
- mutagenic call (Test System: AMES SALMONELLA TYPHIMURIUM, Strain/Indicator: TA100, Metabolic Activation: NONE): inactive; negative
- mutagenic call (Test System: AMES SALMONELLA TYPHIMURIUM, Strain/Indicator: TA100, Metabolic Activation: NONE, Method: MICROSUSPENSION): inactive; negative
- mutagenic call (Test System: AMES SALMONELLA TYPHIMURIUM, Strain/Indicator: TA100, Metabolic Activation: S-9, Method: MICROSUSPENSION): inactive; negative

Compound: CCOC(=O)COc1ccc2c(=O)cc(-c3ccccc3)oc2c1
- mutagenic call (Test System: AMES SALMONELLA TYPHIMURIUM, Strain/Indicator: TA98, Metabolic Activation: NONE, Method: STANDARD PLATE): inactive; negative
- mutagenic call (Test System: AMES SALMONELLA TYPHIMURIUM, Strain/Indicator: TA98, Metabolic Activation: RAT, LIVER, S-9, PHENOBARBITAL, Method: STANDARD PLATE): inactive; negative
- mutagenic call (Test System: AMES SALMONELLA TYPHIMURIUM, Strain/Indicator: TA100, Metabolic Activation: NONE, Method: STANDARD PLATE): inactive; negative
- mutagenic call (Test System: AMES SALMONELLA TYPHIMURIUM, Strain/Indicator: TA100, Metabolic Activation: RAT, LIVER, S-9, PHENOBARBITAL, Method: STANDARD PLATE): inactive; negative
- mutagenic call (Test System: AMES SALMONELLA TYPHIMURIUM, Strain/Indicator: TA1535, Metabolic Activation: NONE, Method: STANDARD PLATE): inactive; negative
- mutagenic call (Test System: AMES SALMONELLA TYPHIMURIUM, Strain/Indicator: TA1535, Metabolic Activation: RAT, LIVER, S-9, PHENOBARBITAL, Method: STANDARD PLATE): inactive; negative
- mutagenic call (Test System: AMES SALMONELLA TYPHIMURIUM, Strain/Indicator: TA1537, Metabolic Activation: NONE, Method: STANDARD PLATE): inactive; negative
- mutagenic call (Test System: AMES SALMONELLA TYPHIMURIUM, Strain/Indicator: TA1537, Metabolic Activation: RAT, LIVER, S-9, PHENOBARBITAL, Method: STANDARD PLATE): inactive; negative
- mutagenic call (Test System: AMES SALMONELLA TYPHIMURIUM, Strain/Indicator: TA1538, Metabolic Activation: NONE, Method: STANDARD PLATE): inactive; negative
- mutagenic call (Test System: AMES SALMONELLA TYPHIMURIUM, Strain/Indicator: TA1538, Metabolic Activation: RAT, LIVER, S-9, PHENOBARBITAL, Method: STANDARD PLATE): inactive; negative
